“Also recorded” adds a separate entry of the source. Read-outs that look alike come from different tables or passages of the source.
How the values were obtained:
[1] = for Cmax / Tmax / t1/2 / AUC / Tmax determined from the drug concentration in kidney and plasma (and liver): mouse; for Cmax / Tmax / t1/2 / AUC / Drug concentration, time course: oral gavage, 3mg/kg; for AUC: AUC for 24 hr; for Tmax determined from the drug concentration in kidney and plasma (and liver): tissue not separated; for Drug concentration, time course: normal mice
[2] = test system: diabetes mellitus patients; test: Acute kidney injury; type: in vivo, human; conditions: for Association with AKI, Unadjusted (95% CI) / Association with AKI, Adjusted (95% CI): metformin as reference; for Association with AKI, Adjusted (95% CI): multivariate; for Events During the 90 days (AKI): primary endpoint, first 90 days, patients above 55 years; for Total endpoint (AKI events): primary plus secondary endpoint; for Events at secondary end (AKI): secondary endpoint, after 90 days of hospital admission; for Total Percent (incidence rate of AKI at the end of the study): share of the 4966 total outcomes; for Association with AKI compared to control drug metformin, in words: multivariate analysis
in vivo = conditions: male, ICR, mouse, po
[3] = Endpoint Diagnosis with 1047 Outcome
[4] = Secondary Diagnosis with 3919 Outcomes

Compound: Cc1ccc([C@@H]2O[C@H](CO)[C@@H](O)[C@H](O)[C@H]2O)cc1Cc1ccc(-c2ccc(F)cc2)s1 [Canagliflozin, canagliflozin]
- Cmax ([1]; Kidney): 3765 ng/mL
- Tmax ([1]; Kidney): 1 h
- t1/2 ([1]; Kidney): 2.4 h
- AUC ([1]; Kidney): 12,100 ng/mL
- Cmax ([1]; Liver): 3217 ng/mL
- Tmax ([1]; Liver): 1 h
- t1/2 ([1]; Liver): 2.8 h
- AUC ([1]; Liver): 10,100 ng/mL
- Cmax ([1]; Plasma): 542 ng/mL
- Tmax ([1]; Plasma): 1 h
- t1/2 ([1]; Plasma): 2.1 h
- AUC ([1]; Plasma): 1432 ng/mL
- Tmax determined from the drug concentration in kidney and plasma (and liver) [1]: 1 h
- Drug concentration, time course ([1]; Kidney, 0h): 0
- Drug concentration, time course ([1]; Kidney, 3h): 5000
- Drug concentration, time course ([1]; Kidney, 6h): 4300
- Drug concentration, time course ([1]; Kidney, 9h): 900
- Drug concentration, time course ([1]; Kidney, 12h): 300
- Drug concentration, time course ([1]; Kidney, 15h): 0
- Drug concentration, time course ([1]; Kidney, 18h): 0
- Drug concentration, time course ([1]; Kidney, 21h): 0
- Drug concentration, time course ([1]; Kidney, 24h): 0
- Drug concentration, time course ([1]; Liver, 0h): 0
- Drug concentration, time course ([1]; Liver, 3h): 4700
- Drug concentration, time course ([1]; Liver, 6h): 3900
- Drug concentration, time course ([1]; Liver, 9h): 600
- Drug concentration, time course ([1]; Liver, 12h): 100
- Drug concentration, time course ([1]; Liver, 15h): 0
- Drug concentration, time course ([1]; Liver, 18h): 0
- Drug concentration, time course ([1]; Liver, 21h): 0
- Drug concentration, time course ([1]; Liver, 24h): 0
- Drug concentration, time course ([1]; Plasma, 0h): 0
- Drug concentration, time course ([1]; Plasma, 3h): 500
- Drug concentration, time course ([1]; Plasma, 6h): 300
- Drug concentration, time course ([1]; Plasma, 9h): 50
- Drug concentration, time course ([1]; Plasma, 12h): 0
- Drug concentration, time course ([1]; Plasma, 15h): 0
- Drug concentration, time course ([1]; Plasma, 18h): 0
- Drug concentration, time course ([1]; Plasma, 21h): 0
- Drug concentration, time course ([1]; Plasma, 24h): 0
- Association with AKI, Unadjusted (95% CI) [2, 3]: 0.85 (0.67–1.21)
- Association with AKI, Adjusted (95% CI) [2, 3]: 1.06 (0.68–1.34)
- Association with AKI, Unadjusted (95% CI) [2, 4]: 0.89 (0.61–1.25)
- Association with AKI, Adjusted (95% CI) [2, 4]: 1.06 (0.91–1.42)
- Events During the 90 days (AKI) [2]: 66
- Total endpoint (AKI events) [2]: 267
- Events at secondary end (AKI) [2]: 201
- Total Percent (incidence rate of AKI at the end of the study) [2]: 5.38%

Compound: CC1=C(C(=O)O)N2C(=O)[C@@H](NC(=O)[C@H](N)c3ccccc3)[C@H]2SC1 [Cephalexin, cephalexin]
- Drug concentration, time course ([1]; Kidney, 0h): 0
- Drug concentration, time course ([1]; Kidney, 3h): 8130
- Drug concentration, time course ([1]; Kidney, 6h): 5630
- Drug concentration, time course ([1]; Kidney, 9h): 2390
- Drug concentration, time course ([1]; Kidney, 12h): 450
- Drug concentration, time course ([1]; Kidney, 15h): 30
- Drug concentration, time course ([1]; Kidney, 18h): 0
- Drug concentration, time course ([1]; Kidney, 21h): 0
- Drug concentration, time course ([1]; Kidney, 24h): 0
- Drug concentration, time course ([1]; Liver, 0h): 0
- Drug concentration, time course ([1]; Liver, 6h): 7460
- Drug concentration, time course ([1]; Liver, 9h): 4550
- Drug concentration, time course ([1]; Liver, 12h): 1650
- Drug concentration, time course ([1]; Liver, 15h): 340
- Drug concentration, time course ([1]; Liver, 18h): 80
- Drug concentration, time course ([1]; Liver, 21h): 0
- Drug concentration, time course ([1]; Liver, 24h): 0
- Drug concentration, time course ([1]; Plasma, 0h): 0
- Drug concentration, time course ([1]; Plasma, 3h): 360
- Drug concentration, time course ([1]; Plasma, 6h): 70
- Drug concentration, time course ([1]; Plasma, 9h): 30
- Drug concentration, time course ([1]; Plasma, 12h): 0
- Drug concentration, time course ([1]; Plasma, 15h): 0
- Drug concentration, time course ([1]; Plasma, 18h): 0
- Drug concentration, time course ([1]; Plasma, 21h): 0
- Drug concentration, time course ([1]; Plasma, 24h): 0
- Association with AKI, Adjusted (95% CI) [2, 3]: 1.52 (1.31–2.16)
- Association with AKI, Adjusted (95% CI) [2, 4]: 1.82 (1.31–2.25)
- Association with AKI compared to control drug metformin, in words [2]: increased rate of AKI; also recorded: higher risk for AKI
- Events During the 90 days (AKI) [2]: 50
- Total endpoint (AKI events) [2]: 333
- Events at secondary end (AKI) [2]: 283
- Total Percent (incidence rate of AKI at the end of the study) [2]: 6.71%

Compound: CCOc1ccc(Cc2cc([C@@H]3O[C@H](CO)[C@@H](O)[C@H](O)[C@H]3O)ccc2Cl)cc1 [Dapagliflozin, dapagliflozin]
- Tmax (in vivo): 1 h
- Tmax (in vivo; 3 mg/kg): 1 h
- half-life (in vivo; 3 mg/kg, t1/2): 2.8 h
- Association with AKI, Unadjusted (95% CI) [2, 3]: 0.94 (0.71–1.25)
- Association with AKI, Adjusted (95% CI) [2, 3]: 0.84 (0.72–1.32)
- Association with AKI, Unadjusted (95% CI) [2, 4]: 0.81 (0.63–1.33)
- Association with AKI, Adjusted (95% CI) [2, 4]: 0.93 (0.58–1.24)
- Events During the 90 days (AKI) [2]: 73
- Total endpoint (AKI events) [2]: 298
- Events at secondary end (AKI) [2]: 225
- Total Percent (incidence rate of AKI at the end of the study) [2]: 6%
- Total Percent (incidence rate of AKI at the end of the study) ([2]; listed as dapagliflozin): 6.0%

Compound: CN(C)C(=N)N=C(N)N [Metformin, metformin]
- Tmax (in vivo): 0.5 h
- Tmax (in vivo; 3 mg/kg): 0.5 h
- Association with AKI, Unadjusted (95% CI) [2, 3]: 1
- Association with AKI, Adjusted (95% CI) [2, 3]: 1
- Association with AKI, Unadjusted (95% CI) [2, 4]: 1.0 (Reference)
- Association with AKI, Adjusted (95% CI) [2, 4]: 1.0 (Reference)
- Events During the 90 days (AKI) [2]: 69
- Total endpoint (AKI events) [2]: 330
- Events at secondary end (AKI) [2]: 261
- Total Percent (incidence rate of AKI at the end of the study) [2]: 6.64%

Compound: insulin
- Cmax ([1]; Kidney): 6574 ng/mL
- Tmax ([1]; Kidney): 1 h
- AUC ([1]; Kidney): 26,742 ng/mL
- Cmax ([1]; Liver): 6087 ng/mL
- Tmax ([1]; Liver): 1 h
- AUC ([1]; Liver): 19,851 ng/mL
- Cmax ([1]; Plasma): 879 ng/mL
- Tmax ([1]; Plasma): 1 h
- AUC ([1]; Plasma): 2985 ng/mL
- Tmax determined from the drug concentration in kidney and plasma (and liver) [1]: 1 h
- Drug concentration, time course ([1]; Kidney, 0h): 0
- Drug concentration, time course ([1]; Kidney, 3h): 14,200
- Drug concentration, time course ([1]; Kidney, 6h): 10,400
- Drug concentration, time course ([1]; Kidney, 9h): 6400
- Drug concentration, time course ([1]; Kidney, 12h): 3700
- Drug concentration, time course ([1]; Kidney, 15h): 500
- Drug concentration, time course ([1]; Kidney, 18h): 0
- Drug concentration, time course ([1]; Kidney, 21h): 0
- Drug concentration, time course ([1]; Kidney, 24h): 0
- Drug concentration, time course ([1]; Liver, 0h): 0
- Drug concentration, time course ([1]; Liver, 3h): 9400
- Drug concentration, time course ([1]; Liver, 6h): 5050
- Drug concentration, time course ([1]; Liver, 9h): 2380
- Drug concentration, time course ([1]; Liver, 12h): 370
- Drug concentration, time course ([1]; Liver, 15h): 0
- Drug concentration, time course ([1]; Liver, 18h): 0
- Drug concentration, time course ([1]; Liver, 21h): 0
- Drug concentration, time course ([1]; Liver, 24h): 0
- Drug concentration, time course ([1]; Plasma, 0h): 0
- Drug concentration, time course ([1]; Plasma, 3h): 640
- Drug concentration, time course ([1]; Plasma, 6h): 450
- Drug concentration, time course ([1]; Plasma, 9h): 310
- Drug concentration, time course ([1]; Plasma, 12h): 50
- Drug concentration, time course ([1]; Plasma, 15h): 0
- Drug concentration, time course ([1]; Plasma, 18h): 0
- Drug concentration, time course ([1]; Plasma, 21h): 0
- Drug concentration, time course ([1]; Plasma, 24h): 0
- Association with AKI, Unadjusted (95% CI) [2, 3]: 2.26 (1.95–2.64)
- Association with AKI, Adjusted (95% CI) [2, 3]: 2.36 (1.81–2.87)
- Association with AKI, Unadjusted (95% CI) [2, 4]: 2.42 (1.25–2.61)
- Association with AKI, Adjusted (95% CI) [2, 4]: 2.73 (2.28–2.90)
- Association with AKI compared to control drug metformin, in words [2]: increased rate of AKI; also recorded: higher risk for AKI
- Total endpoint (AKI events) [2]: 348
- Events at secondary end (AKI) [2]: 290

From paper PMC8053501 (Diabetes, Metabolic Syndrome and Obesity: Targets and …, 2021)
